# Source: patent US7989179B2, “LXR ligand testing method” (Daiichi Sankyo Company, Limited, priority 2005, dated 2011)
# Assays:
# THP-1 cells = experiment: Cholesterol efflux assay; type: cell-based; conditions: compound final concentration 0.1 μM, 24 hours
# Method: 3×10^5 THP-1 cells (ATCC No.: TIB-202) were disseminated in a 96-well white plate (Costar) followed by the addition of 200 nM Phorbol 12-Myristate 13-Acetate (Sigma) and culturing for 24 hours at 37° C. in a CO2 incubator. […] Following completion of culturing, 100 μl of PBS containing 0.2% bovine serum albumin (hereinafter referred to as “BSA”, (Sigma Chemical)) were added to each well to wash the cells. Next, 100 μl of RPMI 1640 containing Apolipoprotein A1 (hereinafter referred to as “ApoA1”, (Biogenesis)) at a final concentration of 10 μg/ml, or RPMI 1640 not containing ApoA1, were added to each well. […] Following completion of culturing, the plate was centrifuged for 5 minutes at 1,000 rpm and 4° C. 75 μl of medium in the form of the centrifuged supernatant were transferred to a 96-well Luma plate (Packard) and allowed to dry. […] 20 (Packard) were added to each well of the plate containing the washed cells and allowed to stand overnight, followed by measuring the radioactivity of the medium and cells with a scintillation counter (Top Count, Packard). Percent (%) efflux was calculated from the measured values using the calculation formula shown below. % efflux=(Specific radioactivity of medium(CPM)/75×100)/(Specific radioactivity of medium(CPM)+specific radioactivity of cells(CPM))×100 […]
# [1] = target: T1, heterodimer comprising LXRα and RXRα (Homo sapiens, UniProt Q13133, A196R); experiment: FRET assay of coactivator peptide binding to His-LXRα/FLAG-RXRα; type: biochemical
# T1 construct: amino acid nos; made in house; host or cells: Escherichia coli BL21(DE3)
# T1 sequence (Q13133 164-447 A196R): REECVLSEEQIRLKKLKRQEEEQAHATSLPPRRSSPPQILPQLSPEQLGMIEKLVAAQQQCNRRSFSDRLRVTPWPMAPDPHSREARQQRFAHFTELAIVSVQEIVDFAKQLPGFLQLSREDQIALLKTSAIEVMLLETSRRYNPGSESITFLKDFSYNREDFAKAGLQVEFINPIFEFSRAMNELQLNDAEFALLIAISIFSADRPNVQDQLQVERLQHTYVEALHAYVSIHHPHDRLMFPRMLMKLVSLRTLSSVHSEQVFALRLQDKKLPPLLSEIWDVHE
# T1 sequence (P19793 201-462 partner limits assumed): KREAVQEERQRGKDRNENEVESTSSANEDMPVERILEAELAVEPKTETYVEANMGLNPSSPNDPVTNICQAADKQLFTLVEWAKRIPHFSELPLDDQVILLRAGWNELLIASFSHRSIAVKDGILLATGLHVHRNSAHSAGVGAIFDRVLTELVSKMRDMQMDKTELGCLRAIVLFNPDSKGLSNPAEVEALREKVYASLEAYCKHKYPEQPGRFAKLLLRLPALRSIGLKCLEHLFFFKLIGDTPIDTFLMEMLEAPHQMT
# Method: 8 μl of LXRα reaction solution (0.05 μl of 4 μM His-LXRα and FLAG-RXRα mixed solution, 1.00 μl of 10×PBS (Sigma Chemical), 2.50 μl of 2 M KF (Wako Pure Chemical Industries), 0.10 μl of 10% NP40 (Sigma Chemical), 0.15 μl of anti-His tag antibody (CIS Bio International) and 4.20 μl of H2O) containing the His-LXRα and FLAG-RXRα prepared according to Example 1 were placed in a 384-well assay plate (Greiner Bio-One).
# Next, 2 μl of a solution of Compound A (N-(2,2,2-trifluoroethyl)-N-{4-[2,2,2-trifluoro-1-hydroxy-1-(trifluoromethyl)ethyl]phenyl}benzene sulfonamide (Compound 12 described on page 55 of International Publication WO2000/054759) or Compound B (3-chloro-4-(3-(2-propyl-3-trifluoromethyl-6-benz-[4,5]-isooxazoloxy)propylthio)phenylacetic acid (a compound described in Example 20 on page 70 of International Publication WO1997/028137), dissolved to a concentration of 10 μM in dimethyl sulfoxide (hereinafter referred to as “DMSO”), were added to each well of a 384-well assay plate followed by incubating for 1 hour at room temperature.
# Next, 10 μl of peptide reaction solution (1.00 μl of 5 μM peptide, 1.00 μl of 10×PBS, 2.50 μl of 2 M KF, 0.10 μl of 10% NP40, 0.20 μl of streptavidin (CIS Bio International) and 5.20 μl of H2O) were added to each well of the 384-well assay plate and incubated for 17 hours at 4° C. The peptide added here was comprising of any of the amino acid sequences of (a) to (g) below, and the amino acid of the N-terminal was biotinylated.
# Following completion of incubation, the assay plate was subjected to excitation light at 337 nm using a fluorescent plate reader (Envision, Perkin-Elmer), and fluorescent absorbance at 665 nm and 620 nm was measured to determine the binding capacity between the protein and the peptide.
# The value obtained by multiplying 1000 by the value resulting from dividing the measured value at 665 nm when applying excitation light at 337 nm by the measured value at 620 nm was determined. This value was then divided by the value determined by the same method when only DMSO was added without adding LXR ligand (Compound A or Compound B), and this value was then multiplied by 100 and indicated as the percentage relative to the control (% of control) as shown in Table 6.
# The value for % of control determined here is the value, represented by a percentage, that indicates the ratio of the increase in the amount of coactivator bound to LXRα that results from adding LXR ligand, and the larger this value, the larger the amount of coactivator that binds to LXRα.
# (1) According to the same method as Example 2) (using the following peptides (h) to (m), instead of the peptides (a) to (g) in Example 2), the amount of coactivator bound to the heterodimer LXRα and RXRα were determined.
# [2] = target: T2, heterodimer comprising LXRβ and RXRα (Homo sapiens, UniProt P55055, DUP175-175); experiment: FRET assay of coactivator peptide binding to His-LXRβ/FLAG-RXRα; type: biochemical
# T2 construct: made in house; host or cells: Escherichia coli BL21(DE3)
# T2 sequence (P55055 with tags, fused parts or gaps DUP175-175): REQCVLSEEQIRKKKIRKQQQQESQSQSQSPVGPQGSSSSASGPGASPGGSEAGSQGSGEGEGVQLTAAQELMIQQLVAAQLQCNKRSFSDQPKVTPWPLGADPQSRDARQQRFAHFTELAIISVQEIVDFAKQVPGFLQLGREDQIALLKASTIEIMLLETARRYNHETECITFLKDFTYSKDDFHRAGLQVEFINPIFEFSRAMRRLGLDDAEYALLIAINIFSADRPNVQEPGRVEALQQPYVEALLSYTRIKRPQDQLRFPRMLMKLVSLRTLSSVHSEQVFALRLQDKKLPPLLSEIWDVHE
# T2 sequence (P19793 201-462 partner limits assumed): T1 sequence (P19793 201-462 partner limits assumed)
# Method: 8 μl of LXRβ reaction solution (0.025 μl of 8 μM His-LXRβ and FLAG-RXRα mixed solution, 1.00 μl of 10×PBS, 2.50 μl of 2 M KF, 0.10 μl of 10% NP40, 0.15 μl of anti-His tag antibody and 4.23 μl of H2O) containing the His-LXRβ and FLAG-RXRα prepared according to Example 1 were placed in a 384-well assay plate (Greiner Bio-One) and measured according to the same method as Example 2 to determine the % of control (Table 6). There was no significant difference observed in the resulting values between Compound A and Compound B.
# (2) […]: According to the same method in Example 3) (using the above peptides (h) to (m), instead of peptides (a) to (g) in Example 3), the amount of the coactivator bound to the heterodimer comprising LXRβ and RXRα were determined. There was no significant difference observed in the resulting values between Compound A and Compound B (Table 7).
# [3] = Cynomolgus monkey consecutive daily administration study; type: in vivo, cynomolgus monkeys; conditions: for Relative value of LDL Cholesterol in Plasma (% of control group) / Relative value of TG in Plasma (% of control group): male cynomolgus monkeys, force fed, PG/Tween
# Method: Five to seven year old, male cynomolgus monkeys in groups of 5 animals each were force fed only an administration base (Propylene glycol (Wako Pure Chemical Industries)/Tween 80 (Kao) (volume ratio: 4/1, hereinafter referred to as “PG/Tween”)) (hereinafter referred to as “the control group”), or Compound A or Compound B dissolved in PG/Tween in an amount of 3 mg/kg or 10 mg/kg once a day for 7 days between the hours of 8:00 and 10:00 AM. After fasting for 16 hours starting at 5:00 PM on the 7th day of administration, 1 mL of blood was collected from the cephalic vein with a heparinized syringe followed by centrifuging for 15 minutes at 4° C. and 5000 rpm to obtain plasma.
# The levels of LDL cholesterol and triglycerides in the plasma were measured with an auto analyzer (Hitachi Model 7170) followed by calculation of the % of control group (Tables 8 and 9).
# [4] = peptide ASC2 NR-1, 2 μl of 10 μM compound solution in DMSO
# [5] = peptide ASC2 NR-2, 2 μl of 10 μM compound solution in DMSO
# [6] = peptide PGC-1α, 2 μl of 10 μM compound solution in DMSO
# [7] = peptide SRC1-2, 2 μl of 10 μM compound solution in DMSO
# [8] = peptide SRC1-3, 2 μl of 10 μM compound solution in DMSO
# [9] = peptide SRC1-4, 2 μl of 10 μM compound solution in DMSO
# [10] = peptide TIF2, 2 μl of 10 μM compound solution in DMSO
smiles,measurement,setting,value
"O=S(=O)(c1ccccc1)N(CC(F)(F)F)c1ccc(C(O)(C(F)(F)F)C(F)(F)F)cc1 [Compound A, N-(2,2,2-trifluoroethyl)-N-{4-[2,2,2-trifluoro-1-hydroxy-1-(trifluoromethyl)ethyl]phenyl}benzenesulfonamide]","relative cholesterol efflux activity (% efflux, Compound A at 1 μM = 100)",THP-1 cells,86%
same,effect on amount of coactivator bound to LXRα (result in words),"[1]; Example 2, peptides (a) to (g)",increases the amount of coactivator bound to LXRα
same,LXRα (% of control),"[1]; peptide ACTR NRB3, same method as Example 2",167 % of control
same,LXRα (% of control),[1]; [4],155.8 % of control
same,LXRα (% of control),[1]; [5],254.0 % of control
same,LXRα (% of control),"[1]; peptide DAX1, same method as Example 2",158 % of control
same,LXRα (% of control),"[1]; peptide PERC NRB2, same method as Example 2",127 % of control
same,LXRα (% of control),[1]; [6],361.7 % of control
same,LXRα (% of control),"[1]; peptide PNRC, same method as Example 2",140 % of control
same,LXRα (% of control),[1]; [7],267.0 % of control
same,LXRα (% of control),[1]; [8],181.3 % of control
same,LXRα (% of control),[1]; [9],207.3 % of control
same,LXRα (% of control),[1]; [10],266.7 % of control
same,LXRα (% of control),"[1]; peptide TIF2 NRB2, same method as Example 2",268 % of control
same,LXRα (% of control),"[1]; peptide TRAP220, same method as Example 2",131 % of control
same,LXRβ (% of control),"[2]; peptide ACTR NRB3, same method as Example 3",129 % of control
same,LXRβ (% of control),[2]; [4],114.5 % of control
same,LXRβ (% of control),[2]; [5],120.4 % of control
same,LXRβ (% of control),"[2]; peptide DAX1, same method as Example 3",116 % of control
same,LXRβ (% of control),"[2]; peptide PERC NRB2, same method as Example 3",104 % of control
same,LXRβ (% of control),[2]; [6],191.0 % of control
same,LXRβ (% of control),"[2]; peptide PNRC, same method as Example 3",109 % of control
same,LXRβ (% of control),[2]; [7],120.4 % of control
same,LXRβ (% of control),[2]; [8],110.6 % of control
same,LXRβ (% of control),[2]; [9],154.6 % of control
same,LXRβ (% of control),[2]; [10],107.9 % of control
same,LXRβ (% of control),"[2]; peptide TIF2 NRB2, same method as Example 3",125 % of control
same,LXRβ (% of control),"[2]; peptide TRAP220, same method as Example 3",111 % of control
same,effect on plasma LDL cholesterol and triglyceride concentration (result in words),"[3]; cynomolgus monkeys, 7 days administration",increase LDL cholesterol concentration and triglyceride concentration in the plasma
same,Relative value of LDL Cholesterol in Plasma (% of control group),[3]; 3 mg/kg once a day for 7 days,137%
same,Relative value of TG in Plasma (% of control group),[3]; 3 mg/kg once a day for 7 days,429%
same,Relative value of LDL Cholesterol in Plasma (% of control group),[3]; 10 mg/kg once a day for 7 days,207%
same,Relative value of TG in Plasma (% of control group),[3]; 10 mg/kg once a day for 7 days,661%
